# Results as given in patent publication US20070202165A1, “Method for a supplemental dietary composition having a multi-phase dissolution profile” (priority 2006, published 2007).
# Entries after “also recorded” stand apart in the source; their conditions may differ.
# Columns and labels:
# Type in all cases: physicochemical
# [1] = Solubility test with filtration: amount dissolved until saturated and dry powder remaining on filter paper; conditions: gravity filtration, filter paper dried
# Protocol: A second experiment relating to fine-milling and potential increase in bioavailability was conducted. In order to test the capacity of fine-milling to improve the rate bioavailability of substances, a simple test was performed. The test was conceived to mimic various elements involved in the processes of oral administration of a nutritional supplement. The key parameters involved were rate of dissolution and solubility, as it is understood that an ingested nutrient must be dissolved or reduced to a bio-transportable size in order to be utilized biochemically by the body.
# The rates of dissolution and solubility of regular common nutritional supplements were compared to fine-milled versions within a fixed time.
# 100 mL of water was added to a 250 mL beaker and a magnetic stirring bar was placed in the beaker. The beaker was placed on a magnetic stirrer and stirred with low speed. 1 g of a given supplemental dietary ingredient powder was added incrementally to the beaker with the stirring speed constant until the solution visually appeared saturated. […]
# The ‘Fold Change’ represents the change in the amount of substance unable to pass through the filter as calculated by the amount of unfiltered regular substance divided by the amount of unfiltered fine-milled substance and represents the potential theoretical improvement in bioavailability.
# [2] = Time to dissolve in water, estimated by visual inspection, regular vs fine-milled ingredients; conditions: for Time taken to dissolve: 100 mL water, magnetic stirring
# Protocol: In order to determine the effect of fine-milling on the dissolution rate, initial testing was performed to examine the rate of dissolution of common supplemental dietary ingredients. For the purposes of this disclosure, the term “regular” as used herein makes reference to non-fine-milled particles. 100 mL of water was placed into a 250 mL beaker and a magnetic stirrer bar was added to the beaker. The beaker was then placed on a magnetic stirrer was set to constant speed. […] The time required to dissolve was estimated by visual inspection. Equal amounts of the fine-milled ingredients were then added to the water and the time required to dissolve was estimated by visual inspection.
# [3] = Kinetic dissolution experiment: samples filtered at 1 and 5 minutes; conditions: for weight of unfiltered sample: 1 g in 50 mL water, Whateman 41 filter
# Protocol: In order to expand on the results of the aforenoted experiments, a kinetic experiment was conducted to examine the change in the dissolution rate over short time periods.
# 1 g of sample was added to 50 mL water in a flask with a magnetic stir bar on a stirrer set at constant speed. Separate samples were filtered at 1 and 5 minutes. The pre-weighed filter papers (Whateman 41, particle retention 20-25 μm) were allowed to dry and the amount of sample remaining on the filter paper was determined.
compound,measurement,setting,value
CN(CC(=O)O)C(=N)N.O [Creatine Monohydrate],Dry Powder On Filter,[1]; Powder type Fine-milled,0.01 g
same,Dry Powder On Filter,[1]; Powder type Regular,0.19 g
same,Time taken to dissolve,[2]; Powder type Fine-milled,<5 min
same,Time taken to dissolve,[2]; Powder type Regular (non-fine-milled),<5 min
same,Dissolution of fine-milled compared with regular ingredient (in words),"[2]; fine-milled vs regular, Monohydrate",dissolved at the same rate in both the fine-milled and regular formats; also recorded: did not display a difference dependent on particle size
same,"Time to filter, fine-milled compared with regular samples (in words)",[3]; 1- and 5-minute intervals,consistently longer for the fine-milled samples
same,weight of unfiltered sample,"[3]; Fine-milled, filtered at 1-minute interval, listed as Creatine monohydrate, Monohydrate",0.33 g
same,weight of unfiltered sample,"[3]; Fine-milled, filtered at 1-minute interval, listed as creatine, Monohydrate",0.32 g
same,weight of unfiltered sample,"[3]; Fine-milled, filtered at 5-minute interval",0.27 g
same,weight of unfiltered sample,"[3]; Regular, filtered at 1-minute interval, listed as Creatine monohydrate, Monohydrate",0.32 g
same,weight of unfiltered sample,"[3]; Regular, filtered at 1-minute interval, listed as creatine, Monohydrate",0.33 g
same,weight of unfiltered sample,"[3]; Regular, filtered at 5-minute interval",0.40 g
